Where a SMILES comes first, the peptide text is derived from it. The star is where a group is joined. Palmitoyl = CCCCCCCCCCCCCCCC(=O)*
Tests used:
[1] = tested on: 4T1 cells; assay: Uptake of SA‐E in the presence of inhibitors; assay type: cell-based, mouse; settings: inhibitor 10 µM, 20 min pre‐incubation, Cy5 SA‐E 20 µM, FBS free media
Protocol: To explore the effect of serum proteins and different inhibitors on the cellular uptake of SA‐E, 4T1 cells were grown to near confluency in 96 well plates, as described above. For cellular uptake mechanism studies, the growth media (RPMI containing 10% FBS) was exchanged for 100 µL of FBS free media, then returned to the incubator. Inhibitors (brefeldin A, bromsulphalein, chlorpromazine hydrochloride, cis‐ACBD, filipin, heparin, methyl‐β‐cyclodextrin, or wortmannin) were made in FBS free media at a concentration of 1 mM. Then, 1 µL of media containing inhibitors was added to wells, so that the final drug concentration in each well was 10 µM. The plate was returned to the incubator for 20 min. After incubation, Cy5 conjugated SA‐E was added to all wells such that the final concentration was 20 µM per well. The plate was returned to the incubator for 30 min. Wells were aspirated and washed with PBS as above. 100 µL of FBS free media was added, and the plate was returned to the incubator for 1 h. Finally, Hoechst staining and fluorescence imaging were performed using a Leica Thunder DMi8 fluorescent microscope, as described above.

[2] = tested on: TRAMP‐C2 tumors; assay: Tumor accumulation in wild type or SR‐B1‐/‐ tumors; assay type: in vivo, mouse; settings: 50 nmol IV, 2 days
Protocol: (§1) For tumor accumulation studies in subcutaneous (HCT‐116, A375, TRAMP‐C2, MC38, LLC1, RG2, PDX cell lines, wild type or SR‐B1 ‐/‐ TRAMP‐C2, and wild type or LDL‐R ‐/‐ HeLa), intradermal (A375), or fat pad (4T1 and MCF‐7) tumors, cells were implanted as described above. When the tumors reached a size around ≈0.3–1 cm, mice were injected intravenously with 100 µL of ICG conjugated PAs (in PBS, 0.5 mM) or free ICG (in PBS, 0.5 mM). After probe injections, mice were imaged using the IVIS Spectrum (PerkinElmer) with excitation and emission wavelengths of 745 and 820 nm, respectively, at the specified time points. Living Image (PerkinElmer) software was used for all analyses. For MMTV mice experiments, mice were injected intravenously weekly with SA‐E (100 µL PBS, 0.5 mM) between 71 and 85 days of age and imaged 2 days later in the IVIS. […] SA‐E was injected intravenously (100 µL PBS, 0.5 mM), 2 days later the intestinal tissue was harvested, washed, and analyzed in the IVIS for ICG.

[3] = tested on: xenograft, syngeneic, transgenic and PDX tumor models; assay: Tumor accumulation in a broad range of tumor models; assay type: in vivo, mouse; settings: 2 days after 50 nmol IV
Protocol: as §1

[4] = tested on: HeLa tumors; assay: Tumor accumulation in wild type or LDL‐R‐/‐ tumors; assay type: in vivo, mouse; settings: 50 nmol IV, 2 days
Protocol: as §1

[5] = Clearance study (urine and stool); assay type: in vivo, mouse; settings: 50 nmol IV
Protocol: Six Balb/c mice were intravenously injected with 100 µL of either ICG‐conjugated SA‐E or PBS, with three mice in each group. Urine and stool samples were collected from each mouse at different time points up to 7 days. […] Urine from healthy Balb/c mice was collected and pooled to generate a calibration curve. Fluorescence of stool samples was detected using an IVIS (PerkinElmer).

[6] = tested on: 4T1 tumor; assay: Tumor accumulation, live IVIS imaging; assay type: in vivo, mouse
Protocol: as §1

[7] = 4T1 tumor‐bearing mice, 50 nmol IV

**Q.** Which “cellular uptake with Filipin” value [1] does the source give for `CCCCCCCCCCCCCCCC(=O)NCC(=O)NCC(=O)NCC(=O)N[C@@H](Cc1c[nH]cn1)C(=O)N[C@@H](C)C(=O)N[C@@H](C)C(=O)N[C@@H](CC(N)=O)C(=O)NCC(=O)N[C@@H](CCC(=O)O)C(=O)N[C@@H](CCC(=O)O)C(=O)N[C@@H](CS)C(=O)N[C@@H](CCC(=O)O)C(=O)O` [SA‐E] (Palmitoyl-GGGHAANGEECE-OH) here?
**A.** Its value is “decreased SA‐E uptake to a lesser extent”.

**Q.** What about the “cellular uptake with Methyl‐β‐cyclodextrin” value [1] of the same compound?
**A.** Its value is “Significant decreases”.

**Q.** What about the “cellular uptake with Wortmannin” value [1] of the same compound?
**A.** The value was “Significant decreases”.

**Q.** And the “cellular uptake with bromosulfalein (BSP)” value [1]?
**A.** The value was “no change”.

**Q.** What about the “cellular uptake with cis‐ACBD” value [1] of the same compound?
**A.** The value was “no change”.

**Q.** And the “tumor accumulation, SR‐B1 knockout versus wild type tumors” value [2]?
**A.** Its value is “not needed for tumor accumulation”.

**Q.** And the “tumor accumulation across models” value [3]?
**A.** The value was “highly specific tumor accumulation in all 13 tumor models”.

**Q.** And the “tumor accumulation, LDL‐R knockout versus wild type tumors” value [4]?
**A.** Its value is “not needed for tumor accumulation”.

**Q.** What about the “fluorescence in urine samples” value ([5]; any time point up to 7 days, plate reader) of the same compound?
**A.** Its value is “No fluorescence signal was detected”.

**Q.** What about the “decline of ICG signal in stool” value ([5]; Balb/c mice, IVIS) of the same compound?
**A.** Its value is “mostly diminished at 2 days”.

**Q.** What about the “time of peak ICG signal in stool” value ([5]; Balb/c mice, IVIS, n = 3) of the same compound?
**A.** The value was 6 h.

**Q.** And the “day of 50% decrease in the tumor signal” value [6, 7]?
**A.** The value was 3 days.

**Q.** And the “retention of tumor signal” value [6, 7]?
**A.** The value was “still detectable levels even 2 weeks after injection”.

**Q.** And the “time at which background signal was mostly cleared” value [6, 7]?
**A.** The value was 2 days.

**Q.** What about the “total tumor accumulation relative to No‐SA” value [6, 7] of the same compound?
**A.** The value was “≈ 1.6 fold”.

**Q.** What about the “time of maximum tumor fluorescence” value ([6]; 4T1 tumor‐bearing mice, ICG conjugated, 50 nmol IV) of the same compound?
**A.** Its value is 11 h.

**Q.** What about the “retention in the tumor” value ([6]; biodistribution studies, summary in introduction) of the same compound?
**A.** Its value is “more than 2 weeks”.

**Q.** What about the “maximum TBR” value ([6]; days 2 to 8, 50 nmol IV) of the same compound?
**A.** Its value is 5–6.

Reference: article PMC12801355, “Peptide Amphiphiles Hitchhike on Endogenous Biomolecules for Enhanced Cancer Imaging and Therapy” (Advanced Materials (Deerfield Beach, Fla.), 2025)
